The nature of the data set: Permeability and efflux ratio in Caco-2 cells. As to conditions: human; for recovery at 120 min, 10 µM: Caco-2, Caco-2, 10 µM. In kind it is in vitro ADME. As to the method: Human colon carcinoma (Caco-2) cells, which were obtained from Military Medical Research Institute, were maintained in Dulbecco’s modified Eagle’s medium. Caco-2 cells were seeded onto […] (PET) in 96-well Falcon insert systems at 2 × 10^5 cells/cm^2 for 21–28 days for confluent cell monolayer formation. […] Test compounds were diluted with the transport buffer (HBSS without BSA) from a 10 mM stock solution to a concentration of 10 µM and applied to the apical or basolateral side of the cell monolayer. Permeation of the test compounds in the direction from A to B or from B to A was determined in duplicate over a 120-min incubation at 37 °C and 5% CO2 with a relative humidity of 95%. In addition, the efflux ratio of each compound was also determined. Test and reference compounds were quantified by LC-MS/MS analysis based on the peak area ratio of analyte/IS. The apparent permeability coefficient Papp (cm/s) was calculated using the following equation:Papp = (dCr/dt) × Vr/(A × C0) where dCr/dt is the cumulative concentration of the compound in the receiver chamber as a function of time (S); Vr is the solution volume in the receiver chamber (0.1 mL on the apical side, 0.25 mL on the basolateral side); A is the surface area for the transport, i.e., 0.0804 cm^2 for the area of the monolayer; C0 is the initial concentration in the donor chamber. […] Cd and Cr are the final concentrations of transport compound in donor and receiver chambers, respectively. Cc is the compound concentration in the cell lysate solution. Vc is the volume of insert well (0.1 mL in this assay).

The mark [1] stands for this setting: Caco-2, 10 µM, 120-min incubation, 37 °C.

Like-named read-outs stand apart in the source and are kept apart here.

In the case of `CC(C)NCC(O)COc1cccc2ccccc12` (centres unmarked) [Propranolol], the recovery at 120 min, 10 µM (read-out: Mean Recovery % A to B) amounted to 81%. Under setting [1], the Papp A→B at 120 min, 10 µM was 294 nm/s.

For the molecule `C[C@H]1O[C@@H](O[C@H]2[C@@H](O)C[C@H](O[C@H]3[C@@H](O)C[C@H](O[C@H]4CC[C@@]5(C)[C@H](CC[C@@H]6[C@@H]5C[C@@H](O)[C@]5(C)[C@@H](C7=CC(=O)OC7)CC[C@]65O)C4)O[C@@H]3C)O[C@@H]2C)C[C@H](O)[C@@H]1O` [Digoxin], where the note is “read-out: Mean Recovery % B to A”, the recovery at 120 min, 10 µM is 95.3%. In addition, under setting [1], the Papp A→B at 120 min, 10 µM was 6.5 nm/s and the Papp B→A at 120 min, 10 µM came out at 146 nm/s.

These data come from PMC10931676 (International Journal of Molecular Sciences, 2024).
